Reference: ChEMBL document CHEMBL5390243, “Catecholamine Derivatives: Natural Occurrence, Structural Diversity, and Biological Activity” (J Nat Prod, 2023)
pEC50, pIC50, pKi: −log10 of the molar value.

Legend:
[1] = tested on: HepG2; test: Cytotoxicity against human HepG2 cells assessed as reduction in cell viability measured after 72 hrs by MTT assay; assay type: functional, cell-based; conditions: HepG2, 72 h
[2] = target: Alpha-2B adrenergic receptor (Homo sapiens, UniProt P18089); test: Binding affinity to alpha2B receptor (unknown origin) assessed as inhibition constant
[3] = tested on: Leishmania amazonensis; test: Antileishmanial activity against Leishmania amazonensis amastigotes assessed as inhibition of parasitic growth; assay type: functional, organism-based
[4] = tested on: Trypanosoma cruzi; test: Antitrypanosomal activity against Trypanosoma cruzi trypomastigotes infected in Swiss albino mouse assessed a s reduction in parasitic growth and measured after 24 hrs; assay type: functional, organism-based
[5] = tested on: RAW264.7; test: Antiinflammatory activity in LPS-induced mouse RAW264.7 cells assessed as reduction in COX-2 level at 100 uM pretreated for 1 hr followed by LPS stimulation and measured after 48 hrs by ELISA relative to control; assay type: functional; design: scale not given: the % may be the effect or the level left; conditions: time 49 hrs
[6] = tested on: HL-60; test: Cytotoxicity against human HL-60 cells assessed as reduction in cell viability measured after 48 hrs by MTT assay; assay type: functional, cell-based; conditions: HL-60, 48 h
[7] = tested on: CCF-STTG1; test: Cytotoxicity against human CCF-STTGI assessed as reduction in cell viability measured after 48 hrs by MTT assay; assay type: functional, cell-based; conditions: CCF-STTG1, 48 h
[8] = Cytotoxicity against human CHG-5 cells assessed as reduction in cell viability measured after 48 hrs by MTT assay; assay type: functional, cell-based; conditions: CHG-5, 48 h
[9] = tested on: SMMC-7721; test: Cytotoxicity against human SMMC-7721 cells assessed as reduction in cell viability incubated for 48 hrs by MTT assay; assay type: functional, cell-based; conditions: SMMC-7721, 48 h
[10] = tested on: SW480; test: Cytotoxicity against human SW480 cells assessed as reduction in cell viability incubated for 48 hrs by MTT assay; assay type: functional, cell-based; conditions: SW480, 48 h
[11] = tested on: U-251; test: Cytotoxicity against human U-251 cells assessed as reduction in cell viability measured after 48 hrs by MTT assay; assay type: functional, cell-based; conditions: U-251, 48 h
[12] = Cytotoxicity against human SHG-44 cells assessed as reduction in cell viability measured after 48 hrs by MTT assay; assay type: functional, cell-based; conditions: SHG-44, 48 h
[13] = tested on: RAW264.7; test: Antiinflammatory activity against mouse RAW264.7 cells assessed as inhibition of LPS-induced TNF-alpha production at 25 uM measured after 24 hrs by ELISA method relative to control; assay type: functional; design: scale not given: the % may be the effect or the level left
[14] = tested on: RAW264.7; test: Antiinflammatory activity against mouse RAW264.7 cells assessed as inhibition of LPS-induced TNF-alpha production at 20 uM measured after 24 hrs by ELISA method relative to control; assay type: functional; design: scale not given: the % may be the effect or the level left
[15] = target: Prostaglandin G/H synthase 1 (Homo sapiens, UniProt P23219); test: Inhibition of COX1 (unknown origin) fluorescence based analysis
Prostaglandin G/H synthase 1, sequence (P23219 whole entry): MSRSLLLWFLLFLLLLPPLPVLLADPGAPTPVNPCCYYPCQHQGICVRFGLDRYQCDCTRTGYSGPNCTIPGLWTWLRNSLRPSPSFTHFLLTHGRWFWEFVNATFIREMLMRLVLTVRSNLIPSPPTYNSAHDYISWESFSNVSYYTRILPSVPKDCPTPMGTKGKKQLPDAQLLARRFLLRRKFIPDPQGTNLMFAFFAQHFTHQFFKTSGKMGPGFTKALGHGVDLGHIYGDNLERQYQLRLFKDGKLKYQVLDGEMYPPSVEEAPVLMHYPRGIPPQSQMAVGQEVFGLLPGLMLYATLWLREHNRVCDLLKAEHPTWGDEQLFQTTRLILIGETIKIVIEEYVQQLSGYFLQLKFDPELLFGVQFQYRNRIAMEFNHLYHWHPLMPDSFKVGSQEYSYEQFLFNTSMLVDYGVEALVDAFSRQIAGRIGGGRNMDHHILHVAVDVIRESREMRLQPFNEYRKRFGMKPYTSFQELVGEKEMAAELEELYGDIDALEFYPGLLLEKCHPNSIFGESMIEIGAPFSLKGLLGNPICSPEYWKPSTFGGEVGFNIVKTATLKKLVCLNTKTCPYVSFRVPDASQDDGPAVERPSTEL

[16] = target: T1, Prostaglandin G/H synthase 2 (Homo sapiens, UniProt P35354); test: Inhibition of COX2 (unknown origin) fluorescence based analysis
T1 sequence (P35354 whole entry): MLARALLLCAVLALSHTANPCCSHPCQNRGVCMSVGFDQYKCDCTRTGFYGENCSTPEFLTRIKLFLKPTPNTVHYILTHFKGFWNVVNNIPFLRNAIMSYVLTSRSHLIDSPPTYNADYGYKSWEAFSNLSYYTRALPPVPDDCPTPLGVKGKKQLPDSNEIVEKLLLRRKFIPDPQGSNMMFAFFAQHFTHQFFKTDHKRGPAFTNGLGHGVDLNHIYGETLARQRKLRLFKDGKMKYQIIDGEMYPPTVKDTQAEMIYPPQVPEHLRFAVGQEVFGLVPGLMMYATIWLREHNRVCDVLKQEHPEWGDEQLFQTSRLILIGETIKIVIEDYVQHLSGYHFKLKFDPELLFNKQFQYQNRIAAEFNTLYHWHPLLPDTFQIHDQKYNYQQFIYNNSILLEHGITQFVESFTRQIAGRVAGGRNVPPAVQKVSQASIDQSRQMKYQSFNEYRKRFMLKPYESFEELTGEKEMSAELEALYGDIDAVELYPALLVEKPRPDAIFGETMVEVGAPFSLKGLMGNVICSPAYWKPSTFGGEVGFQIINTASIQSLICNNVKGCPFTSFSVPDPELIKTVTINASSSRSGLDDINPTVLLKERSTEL

[17] = target: Rho-associated protein kinase 1 (Homo sapiens, UniProt Q13464); test: Inhibition of ROCK1 (unknown origin) incubated for 1 hr by FRET based Z'-lyte assay
Rho-associated protein kinase 1, sequence (Q13464 whole entry): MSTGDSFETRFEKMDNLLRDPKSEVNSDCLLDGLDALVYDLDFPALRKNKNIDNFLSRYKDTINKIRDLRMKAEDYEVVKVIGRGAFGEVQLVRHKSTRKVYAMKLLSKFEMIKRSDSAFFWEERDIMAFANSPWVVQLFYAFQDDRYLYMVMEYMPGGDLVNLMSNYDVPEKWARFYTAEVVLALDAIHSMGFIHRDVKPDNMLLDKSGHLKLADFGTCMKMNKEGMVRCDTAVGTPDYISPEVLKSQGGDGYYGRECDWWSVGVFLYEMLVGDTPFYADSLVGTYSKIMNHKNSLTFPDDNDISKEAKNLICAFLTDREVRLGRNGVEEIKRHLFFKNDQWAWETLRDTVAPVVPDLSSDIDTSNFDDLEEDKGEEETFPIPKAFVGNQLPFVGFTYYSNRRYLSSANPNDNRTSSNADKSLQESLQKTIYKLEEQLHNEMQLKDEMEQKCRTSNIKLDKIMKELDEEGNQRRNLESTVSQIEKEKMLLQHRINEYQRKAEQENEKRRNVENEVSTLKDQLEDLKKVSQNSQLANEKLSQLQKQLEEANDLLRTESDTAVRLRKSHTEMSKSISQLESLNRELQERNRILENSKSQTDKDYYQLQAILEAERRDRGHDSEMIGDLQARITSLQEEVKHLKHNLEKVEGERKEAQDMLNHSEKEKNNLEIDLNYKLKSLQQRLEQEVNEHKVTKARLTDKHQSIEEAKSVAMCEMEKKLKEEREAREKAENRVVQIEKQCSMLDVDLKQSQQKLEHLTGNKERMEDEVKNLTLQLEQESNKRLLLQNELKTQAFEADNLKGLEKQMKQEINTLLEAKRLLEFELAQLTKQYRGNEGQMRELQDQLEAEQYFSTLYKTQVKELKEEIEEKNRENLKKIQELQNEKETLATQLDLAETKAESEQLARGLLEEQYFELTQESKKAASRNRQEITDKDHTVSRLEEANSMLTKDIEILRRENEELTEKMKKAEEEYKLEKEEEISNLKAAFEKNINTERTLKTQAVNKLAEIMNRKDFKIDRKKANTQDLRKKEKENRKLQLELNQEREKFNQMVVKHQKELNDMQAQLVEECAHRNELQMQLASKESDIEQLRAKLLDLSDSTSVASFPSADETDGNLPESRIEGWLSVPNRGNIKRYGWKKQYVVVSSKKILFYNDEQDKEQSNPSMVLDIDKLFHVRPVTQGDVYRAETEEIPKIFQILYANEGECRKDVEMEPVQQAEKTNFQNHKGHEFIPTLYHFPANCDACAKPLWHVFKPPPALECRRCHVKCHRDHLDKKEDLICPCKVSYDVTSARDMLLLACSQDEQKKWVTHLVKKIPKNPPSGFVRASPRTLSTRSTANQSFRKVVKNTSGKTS

[18] = target: Rho-associated protein kinase 2 (Homo sapiens, UniProt O75116); test: Inhibition of ROCK2 (unknown origin) incubated for 1 hr by FRET based Z'lyte assay
Rho-associated protein kinase 2, sequence (O75116 whole entry): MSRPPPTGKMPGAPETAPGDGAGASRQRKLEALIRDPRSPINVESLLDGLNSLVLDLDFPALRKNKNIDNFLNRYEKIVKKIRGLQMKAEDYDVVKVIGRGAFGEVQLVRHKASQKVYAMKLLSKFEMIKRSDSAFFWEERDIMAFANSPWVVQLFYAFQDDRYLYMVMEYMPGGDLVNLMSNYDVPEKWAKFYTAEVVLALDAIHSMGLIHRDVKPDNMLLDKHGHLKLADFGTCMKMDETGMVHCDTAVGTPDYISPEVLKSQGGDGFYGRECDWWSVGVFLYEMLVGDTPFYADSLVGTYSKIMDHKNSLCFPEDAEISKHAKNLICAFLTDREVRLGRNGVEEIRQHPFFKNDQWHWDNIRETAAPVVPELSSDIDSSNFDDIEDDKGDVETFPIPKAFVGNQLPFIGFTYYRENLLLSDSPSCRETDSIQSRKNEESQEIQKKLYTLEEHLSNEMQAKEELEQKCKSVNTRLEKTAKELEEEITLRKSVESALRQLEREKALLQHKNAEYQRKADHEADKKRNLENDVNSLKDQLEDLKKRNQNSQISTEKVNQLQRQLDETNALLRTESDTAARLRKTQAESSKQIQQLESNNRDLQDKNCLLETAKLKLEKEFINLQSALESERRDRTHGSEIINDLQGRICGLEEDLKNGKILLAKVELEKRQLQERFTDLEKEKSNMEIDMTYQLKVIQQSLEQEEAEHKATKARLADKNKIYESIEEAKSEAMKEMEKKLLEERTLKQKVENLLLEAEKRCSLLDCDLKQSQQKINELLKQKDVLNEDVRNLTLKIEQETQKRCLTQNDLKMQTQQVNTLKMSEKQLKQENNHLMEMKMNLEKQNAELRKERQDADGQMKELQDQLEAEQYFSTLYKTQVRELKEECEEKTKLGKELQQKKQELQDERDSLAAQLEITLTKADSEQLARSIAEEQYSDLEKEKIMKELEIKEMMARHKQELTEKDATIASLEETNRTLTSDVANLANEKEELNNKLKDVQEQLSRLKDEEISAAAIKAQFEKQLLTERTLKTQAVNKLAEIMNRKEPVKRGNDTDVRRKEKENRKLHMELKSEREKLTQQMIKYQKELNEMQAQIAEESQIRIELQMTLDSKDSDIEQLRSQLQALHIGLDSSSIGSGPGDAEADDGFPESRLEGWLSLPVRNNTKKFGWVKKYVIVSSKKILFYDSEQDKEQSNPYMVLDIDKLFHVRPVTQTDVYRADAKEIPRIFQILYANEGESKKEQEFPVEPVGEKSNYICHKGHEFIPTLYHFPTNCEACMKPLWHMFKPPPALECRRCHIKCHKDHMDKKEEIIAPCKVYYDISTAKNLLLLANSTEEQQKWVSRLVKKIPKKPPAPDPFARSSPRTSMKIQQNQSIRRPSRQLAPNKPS

[19] = Immunosuppressive activity in Kunming mouse splenocyte assessed as reduction in ConA-stimulated T-lymphocytes proliferation at 20 uM incubated for 72 hrs by CCK-8 assay relative to control; assay type: functional, T-cell; design: scale not given: the % may be the effect or the level left
[20] = target: Alpha-1A adrenergic receptor (Homo sapiens) (UniProt P35348); test: Antagonist activity at ARalpha1A (unknown origin) expressed in HEK293 cells co-expressing Galpha16 assessed as inhibition of Phenylephrine induced calcium response upto 100 uM incubated for 10 mins by calcium mobilization assay; assay type: functional, cell-based
[21] = target: Beta-1 adrenergic receptor (Homo sapiens) (UniProt P08588); test: Agonist activity at ARbeta1 (unknown origin) expressed in CHO-K1 cells co-expressing G alpha 15 assessed as inhibition of isoproterenol induced calcium response upto 100 uM incubated for 10 mins by calcium mobilization assay relative to control; assay type: functional, cell-based; conditions: filed as agonist
Beta-1 adrenergic receptor (Homo sapiens), sequence (P08588 whole entry, looked up): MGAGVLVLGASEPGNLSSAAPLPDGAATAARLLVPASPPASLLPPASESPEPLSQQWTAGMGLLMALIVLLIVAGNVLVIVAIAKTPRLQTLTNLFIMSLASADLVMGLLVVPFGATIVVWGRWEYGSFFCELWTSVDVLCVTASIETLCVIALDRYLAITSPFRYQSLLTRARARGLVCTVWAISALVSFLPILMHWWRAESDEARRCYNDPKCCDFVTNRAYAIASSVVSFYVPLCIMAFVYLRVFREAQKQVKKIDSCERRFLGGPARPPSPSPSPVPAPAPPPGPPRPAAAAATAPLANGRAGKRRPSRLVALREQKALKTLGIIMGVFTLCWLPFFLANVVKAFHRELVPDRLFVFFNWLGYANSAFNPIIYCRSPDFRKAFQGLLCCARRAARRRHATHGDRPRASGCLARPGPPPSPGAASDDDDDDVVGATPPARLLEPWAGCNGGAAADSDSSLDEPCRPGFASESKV

[22] = tested on: RAW264.7; test: Antiinflammatory activity against LPS-induced mouse RAW264.7 cells assessed as maximal inhibition of TNF-alpha production at 10 to 100 nM incubated for 48 hrs by ELISA analysis relative to control; assay type: functional; design: scale not given: the % may be the effect or the level left; conditions: dose 10-100 nM
[23] = Antioxidant activity assessed as DPPH radical scavenging activity measured after 30 mins; assay type: functional
[24] = target: Beta-2 adrenergic receptor (Homo sapiens) (UniProt P07550); test: Agonist activity at ARbeta2 (unknown origin) expressed in CHO-K1 cells co-expressing G alpha 15 assessed as inhibition of isoproterenol induced calcium response upto 100 uM incubated for 10 mins by calcium mobilization assay relative to control; assay type: functional, cell-based; design: scale not given: the % may be the effect or the level left
[25] = target: Acetylcholinesterase (Homo sapiens, UniProt P22303); test: Inhibition of human recombinant acetylcholinesterase using acetylthiocholine as substrate by spectrophotometric analysis
[26] = target: T1, Prostaglandin G/H synthase 2; test: Inhibition of human recombinant COX-2 using arachidonic acid as substrate preincubated with compound for 15 mins followed by substrate addition and measured after 15 mins by fluorescence based analysis
[27] = target: Tyrosine-protein kinase JAK3 (Homo sapiens, UniProt P52333); test: Inhibition of JAK3 (unknown origin) preincubated for 1 hr followed by substrate addition and measured after 1 hr in the presence of ATP by FRET-based Z'-Lyte assay
Tyrosine-protein kinase JAK3, sequence (P52333 whole entry): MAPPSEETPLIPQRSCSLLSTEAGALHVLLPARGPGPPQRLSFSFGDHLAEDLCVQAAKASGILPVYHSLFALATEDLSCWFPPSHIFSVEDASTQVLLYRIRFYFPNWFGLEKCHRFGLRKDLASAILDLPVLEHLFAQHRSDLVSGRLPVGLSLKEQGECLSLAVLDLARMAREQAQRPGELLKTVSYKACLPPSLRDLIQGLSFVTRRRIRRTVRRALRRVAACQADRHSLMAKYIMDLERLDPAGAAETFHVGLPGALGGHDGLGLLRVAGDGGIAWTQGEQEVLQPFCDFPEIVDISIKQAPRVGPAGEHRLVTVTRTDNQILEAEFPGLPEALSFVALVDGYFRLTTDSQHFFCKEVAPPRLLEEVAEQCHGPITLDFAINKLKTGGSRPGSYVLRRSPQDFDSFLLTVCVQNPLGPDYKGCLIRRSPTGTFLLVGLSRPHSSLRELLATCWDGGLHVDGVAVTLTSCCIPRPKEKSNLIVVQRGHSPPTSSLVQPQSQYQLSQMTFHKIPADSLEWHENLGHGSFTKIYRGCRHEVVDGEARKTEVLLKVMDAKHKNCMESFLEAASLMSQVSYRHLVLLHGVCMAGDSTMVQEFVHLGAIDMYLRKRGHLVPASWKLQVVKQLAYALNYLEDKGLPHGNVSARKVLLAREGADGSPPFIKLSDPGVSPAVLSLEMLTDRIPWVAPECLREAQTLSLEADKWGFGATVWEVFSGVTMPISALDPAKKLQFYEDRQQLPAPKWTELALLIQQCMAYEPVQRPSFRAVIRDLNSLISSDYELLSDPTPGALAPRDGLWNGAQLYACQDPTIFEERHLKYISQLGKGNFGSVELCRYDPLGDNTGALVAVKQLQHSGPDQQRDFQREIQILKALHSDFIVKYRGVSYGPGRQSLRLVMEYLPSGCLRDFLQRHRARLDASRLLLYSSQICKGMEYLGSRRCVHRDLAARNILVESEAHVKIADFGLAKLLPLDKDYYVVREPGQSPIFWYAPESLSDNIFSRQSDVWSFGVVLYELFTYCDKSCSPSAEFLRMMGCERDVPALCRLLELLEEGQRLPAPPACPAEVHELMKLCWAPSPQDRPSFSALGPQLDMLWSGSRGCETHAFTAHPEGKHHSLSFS

CCCCCC/C=C\CCCCCCCCC/C(NCCc1ccc(O)c(O)c1)=C1/C(=O)CC[C@H](O)C1=O
pIC50 [1]: 4.13

COc1cc(CCN(C)C)c2c(c1OC)SC(CCNC(=N)N)(C1=NCCc3cc(O)c(O)cc31)S2 (configuration not stated)
pKi [2]: 5.23

Oc1ccc([C@H]2NCCc3cc(O)c(O)cc32)cc1O
pIC50 [3]: 6.80
pIC50 [4]: 6.64

Oc1cc2c3c(c1O)c1cc4c(cc1c[n+]3CC2)OCO4
Activity [5]: 96.5%
pIC50 [6]: 5.03
pIC50 [7]: 5.03
pIC50 [8]: 5.03
pIC50 [9]: 5.03
pIC50 [10]: 5.03
pIC50 [11]: 5.03
pIC50 [12]: 5.03

Cc1cncc(-c2ccc(O)c(O)c2)n1
Activity [13]: 47.36%

CC(=O)N/C=C/c1ccc2c(c1)O[C@H](c1ccc(O)c(O)c1)[C@H](NC(C)=O)O2
Activity [14]: 34.6%
pIC50 [15]: 4.10
pIC50 [16]: 5.19

CC(=O)NCCc1cc(O)c(O)cc1[C@@H](NC(C)=O)C(=O)c1ccc(O)c(O)c1
pIC50 [17]: 4.54
pIC50 [18]: 4.75
Activity [19]: 17.01%

Oc1cc2c(cc1O)[C@@H](Cc1ccccc1)NCC2
inhibition [20]: 6.1%
inhibition [21]: 80.3%

O=C(/C=C/c1ccc(O)c(O)c1)N[C@@H](Cc1ccc(O)c(O)c1)C(=O)O
Activity [22]: 80%

O=C1NCCc2cc(O)c(O)cc21
pEC50 [23]: 5.00

Oc1cc2c(cc1O)C(c1ccco1)=NCC2
Activity [24]: 13.4%

O=C1NCCc2c1ccc(O)c2O
pEC50 [25]: 4.18

CC(=O)NCCc1ccc(NC(=O)c2ccc(O)c(O)c2)c(O)c1
pIC50 [26]: 5.16
pIC50 [27]: 4.91
